Experimental data as given in PMC8037182, “Solvothermal Synthesis of Multiple Dihydropyrimidinones at a Time as Inhibitors of Eg5” (Molecules, 2021).

How the values were obtained:
Caco-2 cell line = test: Cytotoxicity MTS assay, Caco-2 cell line; assay type: cell-based; conditions: for OD490 Mean / OD490 Well 1 / OD490 Well 2 / OD490 Well 3: Caco-2 cell line
Procedure, shortened: (§1)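 Cells seeded at 1000 per well, grown 24 h, then exposed to compound (0.5–100 µM final) for 24 h with 0.025% DMSO blank. MTS reagent added for 2 h at 37 °C, absorbance read at 490 nm; IC50 from non-linear regression of % viability versus concentration, three independent duplicate experiments.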

Hela cell line = test: Cytotoxicity MTS assay, Hela cell line; assay type: cell-based; conditions: for OD490 Mean / OD490 Well 1 / OD490 Well 2 / OD490 Well 3: Hela cell line
Procedure, shortened: as §1

`COC(=O)c1[nH]c(C2NC(=S)NC(C)=C2C(=O)c2ccccc2)c(C(=O)OC)c1C` (stereo not shown) [D14] was tested, and the “OD490 Mean” value (Caco-2 cell line; 0.5μM, first assay) was 0.5996, the “OD490 Well 1” value (Caco-2 cell line; 0.5μM, first assay) was 0.5553 and the “OD490 Well 2” value (Caco-2 cell line; 0.5μM, first assay) was 0.5560. For the same molecule, the “OD490 Well 3” value (Caco-2 cell line; 0.5μM, first assay) was 0.6875, the “OD490 Mean” value (Caco-2 cell line; 0.5μM, second assay) was 0.6725 and the “OD490 Well 1” value (Caco-2 cell line; 0.5μM, second assay) was 0.6506. The “OD490 Well 2” value (Caco-2 cell line; 0.5μM, second assay) was 0.6879, the “OD490 Well 3” value (Caco-2 cell line; 0.5μM, second assay) was 0.6791 and the “OD490 Mean” value (Caco-2 cell line; 0.5μM, third assay) was 0.6452. The “OD490 Well 1” value (Caco-2 cell line; 0.5μM, third assay) was 0.6120, the “OD490 Well 2” value (Caco-2 cell line; 0.5μM, third assay) was 0.6285 and the “OD490 Well 3” value (Caco-2 cell line; 0.5μM, third assay) was 0.6952. For the same molecule, the “OD490 Mean” value (Caco-2 cell line; 1μM, second assay) was 0.6718, the “OD490 Well 1” value (Caco-2 cell line; 1μM, second assay) was 0.6251 and the “OD490 Well 2” value (Caco-2 cell line; 1μM, second assay) was 0.6916. The “OD490 Well 3” value (Caco-2 cell line; 1μM, second assay) was 0.6987, the “OD490 Mean” value (Caco-2 cell line; 1μM, third assay) was 0.6246 and the “OD490 Well 1” value (Caco-2 cell line; 1μM, third assay) was 0.6324. The “OD490 Well 2” value (Caco-2 cell line; 1μM, third assay) was 0.6014, the “OD490 Well 3” value (Caco-2 cell line; 1μM, third assay) was 0.6401 and the “OD490 Mean” value (Caco-2 cell line; 10μM, first assay) was 0.6223. For the same molecule, the “OD490 Well 1” value (Caco-2 cell line; 10μM, first assay) was 0.6178, the “OD490 Well 2” value (Caco-2 cell line; 10μM, first assay) was 0.6082 and the “OD490 Well 3” value (Caco-2 cell line; 10μM, first assay) was 0.6409. The “OD490 Mean” value (Caco-2 cell line; 10μM, second assay) was 0.6139, the “OD490 Well 1” value (Caco-2 cell line; 10μM, second assay) was 0.6136 and the “OD490 Well 2” value (Caco-2 cell line; 10μM, second assay) was 0.6117. For the same molecule, the “OD490 Well 3” value (Caco-2 cell line; 10μM, second assay) was 0.6164, the “OD490 Mean” value (Caco-2 cell line; 10μM, third assay) was 0.6241 and the “OD490 Well 1” value (Caco-2 cell line; 10μM, third assay) was 0.5987. The “OD490 Well 2” value (Caco-2 cell line; 10μM, third assay) was 0.6312, the “OD490 Well 3” value (Caco-2 cell line; 10μM, third assay) was 0.6424 and the “OD490 Mean” value (Caco-2 cell line; 25μM, first assay) was 0.5939. For the same molecule, the “OD490 Well 1” value (Caco-2 cell line; 25μM, first assay) was 0.5396, the “OD490 Well 2” value (Caco-2 cell line; 25μM, first assay) was 0.5578 and the “OD490 Well 3” value (Caco-2 cell line; 25μM, first assay) was 0.6844. For the same molecule, the “OD490 Mean” value (Caco-2 cell line; 25μM, second assay) was 0.5279, the “OD490 Well 1” value (Caco-2 cell line; 25μM, second assay) was 0.4988 and the “OD490 Well 2” value (Caco-2 cell line; 25μM, second assay) was 0.5384. The “OD490 Well 3” value (Caco-2 cell line; 25μM, second assay) was 0.5466, the “OD490 Mean” value (Caco-2 cell line; 25μM, third assay) was 0.5570 and the “OD490 Well 1” value (Caco-2 cell line; 25μM, third assay) was 0.5324. For the same molecule, the “OD490 Well 2” value (Caco-2 cell line; 25μM, third assay) was 0.5784, the “OD490 Well 3” value (Caco-2 cell line; 25μM, third assay) was 0.5601 and the “OD490 Mean” value (Caco-2 cell line; 50μM, first assay) was 0.5128. For the same molecule, the “OD490 Well 1” value (Caco-2 cell line; 50μM, first assay) was 0.5310, the “OD490 Well 2” value (Caco-2 cell line; 50μM, first assay) was 0.5192 and the “OD490 Well 3” value (Caco-2 cell line; 50μM, first assay) was 0.4883. For the same molecule, the “OD490 Mean” value (Caco-2 cell line; 50μM, second assay) was 0.5200, the “OD490 Well 1” value (Caco-2 cell line; 50μM, second assay) was 0.5229 and the “OD490 Well 2” value (Caco-2 cell line; 50μM, second assay) was 0.564. The “OD490 Well 3” value (Caco-2 cell line; 50μM, second assay) was 0.4732, the “OD490 Mean” value (Caco-2 cell line; 50μM, third assay) was 0.4713 and the “OD490 Well 1” value (Caco-2 cell line; 50μM, third assay) was 0.4985. The “OD490 Well 2” value (Caco-2 cell line; 50μM, third assay) was 0.4532, the “OD490 Well 3” value (Caco-2 cell line; 50μM, third assay) was 0.4621 and the “OD490 Mean” value (Caco-2 cell line; 100μM, first assay) was 0.4642. For the same molecule, the “OD490 Well 1” value (Caco-2 cell line; 100μM, first assay) was 0.4537, the “OD490 Well 2” value (Caco-2 cell line; 100μM, first assay) was 0.4965 and the “OD490 Well 3” value (Caco-2 cell line; 100μM, first assay) was 0.4424. For the same molecule, the “OD490 Mean” value (Caco-2 cell line; 100μM, second assay) was 0.4817, the “OD490 Well 1” value (Caco-2 cell line; 100μM, second assay) was 0.4326 and the “OD490 Well 2” value (Caco-2 cell line; 100μM, second assay) was 0.5246. The “OD490 Well 3” value (Caco-2 cell line; 100μM, second assay) was 0.4878, the “OD490 Mean” value (Caco-2 cell line; 100μM, third assay) was 0.4653 and the “OD490 Well 1” value (Caco-2 cell line; 100μM, third assay) was 0.4632. The “OD490 Well 2” value (Caco-2 cell line; 100μM, third assay) was 0.4397, the “OD490 Well 3” value (Caco-2 cell line; 100μM, third assay) was 0.4930 and the IC50 (Caco-2 cell line; MTS assay, 24 h exposure) was 103 µM. The “OD490 Mean” value (Hela cell line; 0.5μM, first assay) was 2.3692, the “OD490 Well 1” value (Hela cell line; 0.5μM, first assay) was 2.2024 and the “OD490 Well 2” value (Hela cell line; 0.5μM, first assay) was 2.5165. For the same molecule, the “OD490 Well 3” value (Hela cell line; 0.5μM, first assay) was 2.3887, the “OD490 Mean” value (Hela cell line; 0.5μM, second assay) was 2.4577 and the “OD490 Well 1” value (Hela cell line; 0.5μM, second assay) was 2.5398. The “OD490 Well 2” value (Hela cell line; 0.5μM, second assay) was 2.4478, the “OD490 Well 3” value (Hela cell line; 0.5μM, second assay) was 2.3854 and the “OD490 Mean” value (Hela cell line; 0.5μM, third assay) was 2.5210. For the same molecule, the “OD490 Well 1” value (Hela cell line; 0.5μM, third assay) was 2.5365, the “OD490 Well 2” value (Hela cell line; 0.5μM, third assay) was 2.6899 and the “OD490 Well 3” value (Hela cell line; 0.5μM, third assay) was 2.3365. For the same molecule, the “OD490 Mean” value (Hela cell line; 1μM, first assay) was 2.4838, the “OD490 Well 1” value (Hela cell line; 1μM, first assay) was 2.3561 and the “OD490 Well 2” value (Hela cell line; 1μM, first assay) was 2.5456. For the same molecule, the “OD490 Well 3” value (Hela cell line; 1μM, first assay) was 2.5498, the “OD490 Mean” value (Hela cell line; 1μM, second assay) was 2.4907 and the “OD490 Well 1” value (Hela cell line; 1μM, second assay) was 2.5353. The “OD490 Well 2” value (Hela cell line; 1μM, second assay) was 2.4889, the “OD490 Well 3” value (Hela cell line; 1μM, second assay) was 2.4478 and the “OD490 Mean” value (Hela cell line; 1μM, third assay) was 2.5269. The “OD490 Well 1” value (Hela cell line; 1μM, third assay) was 2.4563, the “OD490 Well 2” value (Hela cell line; 1μM, third assay) was 2.5587 and the “OD490 Well 3” value (Hela cell line; 1μM, third assay) was 2.5656. The “OD490 Mean” value (Hela cell line; 10μM, first assay) was 2.5226, the “OD490 Well 1” value (Hela cell line; 10μM, first assay) was 2.5006 and the “OD490 Well 2” value (Hela cell line; 10μM, first assay) was 2.6290. The “OD490 Well 3” value (Hela cell line; 10μM, first assay) was 2.4381, the “OD490 Mean” value (Hela cell line; 10μM, second assay) was 2.5413 and the “OD490 Well 1” value (Hela cell line; 10μM, second assay) was 2.4987. For the same molecule, the “OD490 Well 2” value (Hela cell line; 10μM, second assay) was 2.5687, the “OD490 Well 3” value (Hela cell line; 10μM, second assay) was 2.5565 and the “OD490 Mean” value (Hela cell line; 10μM, third assay) was 2.5164. For the same molecule, the “OD490 Well 1” value (Hela cell line; 10μM, third assay) was 2.5321, the “OD490 Well 2” value (Hela cell line; 10μM, third assay) was 2.4598 and the “OD490 Well 3” value (Hela cell line; 10μM, third assay) was 2.5574. For the same molecule, the “OD490 Mean” value (Hela cell line; 25μM, first assay) was 2.4708, the “OD490 Well 1” value (Hela cell line; 25μM, first assay) was 2.2633 and the “OD490 Well 2” value (Hela cell line; 25μM, first assay) was 2.6154. For the same molecule, the “OD490 Well 3” value (Hela cell line; 25μM, first assay) was 2.5338, the “OD490 Mean” value (Hela cell line; 25μM, second assay) was 2.5615 and the “OD490 Well 1” value (Hela cell line; 25μM, second assay) was 2.5835. The “OD490 Well 2” value (Hela cell line; 25μM, second assay) was 2.5478, the “OD490 Well 3” value (Hela cell line; 25μM, second assay) was 2.5532 and the “OD490 Mean” value (Hela cell line; 25μM, third assay) was 2.4824. The “OD490 Well 1” value (Hela cell line; 25μM, third assay) was 2.3365, the “OD490 Well 2” value (Hela cell line; 25μM, third assay) was 2.4587 and the “OD490 Well 3” value (Hela cell line; 25μM, third assay) was 2.6521. For the same molecule, the “OD490 Mean” value (Hela cell line; 50μM, first assay) was 2.7660, the “OD490 Well 1” value (Hela cell line; 50μM, first assay) was 2.6176 and the “OD490 Well 2” value (Hela cell line; 50μM, first assay) was 2.8052. The “OD490 Well 3” value (Hela cell line; 50μM, first assay) was 2.8752, the “OD490 Mean” value (Hela cell line; 50μM, second assay) was 2.6584 and the “OD490 Well 1” value (Hela cell line; 50μM, second assay) was 2.6324. For the same molecule, the “OD490 Well 2” value (Hela cell line; 50μM, second assay) was 2.5687, the “OD490 Well 3” value (Hela cell line; 50μM, second assay) was 2.7741 and the “OD490 Mean” value (Hela cell line; 50μM, third assay) was 2.5680. For the same molecule, the “OD490 Well 1” value (Hela cell line; 50μM, third assay) was 2.5574, the “OD490 Well 2” value (Hela cell line; 50μM, third assay) was 2.4768 and the “OD490 Well 3” value (Hela cell line; 50μM, third assay) was 2.6698. For the same molecule, the “OD490 Mean” value (Hela cell line; 100μM, first assay) was 2.5211, the “OD490 Well 1” value (Hela cell line; 100μM, first assay) was 2.7163 and the “OD490 Well 2” value (Hela cell line; 100μM, first assay) was 2.4550. The “OD490 Well 3” value (Hela cell line; 100μM, first assay) was 2.3919, the “OD490 Mean” value (Hela cell line; 100μM, second assay) was 2.5251 and the “OD490 Well 1” value (Hela cell line; 100μM, second assay) was 2.6987. For the same molecule, the “OD490 Well 2” value (Hela cell line; 100μM, second assay) was 2.4465, the “OD490 Well 3” value (Hela cell line; 100μM, second assay) was 2.4301 and the “OD490 Mean” value (Hela cell line; 100μM, third assay) was 2.6068. For the same molecule, the “OD490 Well 1” value (Hela cell line; 100μM, third assay) was 2.6689, the “OD490 Well 2” value (Hela cell line; 100μM, third assay) was 2.5641 and the “OD490 Well 3” value (Hela cell line; 100μM, third assay) was 2.5874. It also gave an IC50 (Hela cell line; MTS assay, 24 h exposure) of over 150 µM.
